These results are taken from ChEMBL document CHEMBL3507680, “University of Dundee, Gates Library screen for HepG2 cell viability”.

SMILES strings stand for the structures.

The data set in a line: Human HepG2 cell viability assay in 384 well format. It is filed as toxicity, cell-based. More on the design: dose 125 nL, time 70.5 hour; concentration not given beside the values. The conditions noted are these: HepG2 cells, read-out: Inhibition.
Turning to `CC(C)(C)n1ncc(C(=O)NCCCC(N)=O)c1C(F)(F)F`, the cytotoxicity at 70.5 h was -9.38%.
In the case of `N#CCCN(CC1CC1)S(=O)(=O)c1cccc(Cl)c1` it was -3.31%; in that of `O=C(CCNC(=O)C1=Cc2ccccc2OC1)Nc1cccnc1`, -6.01%; in that of `N#CCCN(CC1CCOC1)S(=O)(=O)c1cccc(Cl)c1` (stereo not drawn), -5.98%.
Next, `Cc1noc(C)c1NC(=O)CCn1cc(Br)ccc1=O`: -8.23%; `Cc1ccc(F)c2c1N(C(=O)Cc1c(C)nn(C)c1C)CCC2`: -8.9%.
Next, `COc1nc(N2CCC(CC(N)=O)CC2)ncc1Br`: -8.58%.
`COc1ccc(CCNc2cc(-c3nc(C)no3)ccn2)cc1OC`: the cytotoxicity at 70.5 h was -3.44%.
In the case of `CNC(=O)Cc1noc(-c2cc3c(s2)CCC(C)C3)n1` (stereo not drawn) it was -3.99%; in that of `CC1CCC(N2CCC(NS(=O)(=O)CCCF)CC2)CC1` (stereo not drawn), 7.59%.
Next, `CNC(=O)Cc1noc(-c2cc3c(s2)CCC(C)(C)C3)n1`: -3.09%.
On to `CC(C)CCC(=O)N1CCN(c2ncnc3nc(N)ccc23)CC1`, for which the cytotoxicity at 70.5 h is -6.9%.
In the case of `Cc1ccc(C(=O)N2CCN(c3ncnc4nc(N)ccc34)CC2)o1` it was -7.65%.
Consider `CC(C)CCN1CCN(c2ncnc3nc(N)ccc23)CC1`, for which the cytotoxicity at 70.5 h is -2.35%.
In the case of `Cc1noc(C)c1NC(=O)Cn1cc(Br)ccc1=O` it was 0.532%; in that of `Cc1ccc(C(=O)N2CCN(c3ncnc4nc(N)ccc34)CC2)cc1`, 20.2%; in that of `CC(C)OCCC1CCCCN1S(=O)(=O)c1cnn(C)c1` (stereo not drawn), -4.85%.
Take `CC(C)N(C)CCCNC(=O)c1cnn(C(C)(C)C)c1C(F)(F)F`: the cytotoxicity at 70.5 h is -7.79%.
Turning to `Cc1ccc(F)c2c1CCCN2C(=O)Cc1c(C)nn(C)c1C`, the cytotoxicity at 70.5 h was -5.29%.
For `COc1cccc(COC(C)C(=O)NCc2nnc3n2CCC3)c1` (stereo not drawn), the cytotoxicity at 70.5 h is -1.81%.
As for `N#CCCN(CC1CCOC1)S(=O)(=O)c1c(F)cccc1Cl` (stereo not drawn), the cytotoxicity at 70.5 h is -6.61%.
In the case of `CC(C)Cc1noc(CNc2cc3c(cc2Cl)OCCCO3)n1`, the cytotoxicity at 70.5 h is 1.94%.
In the case of `Cc1ncc(CN2CCC(c3ccnn3C)CC2)n1-c1ccccc1` it was 2.82%.
As for `CC1CCCN(S(=O)(=O)NCCCn2ccc3ccccc32)C1` (stereo not drawn), the cytotoxicity at 70.5 h was -9.54%.
Next, `Cn1nccc1C1CCN(Cc2cnn(-c3ccccc3)n2)CC1`: 20.8%; `Cc1noc(C)c1CN1CCN(Cc2nc(C3CC3)no2)CC1`: -12.8%; `Cn1nccc1C1CCN(Cc2ccn(-c3ccccc3)n2)CC1`: -5.5%.
In the case of `CCn1cnc2c(c(Br)nn2C)c1=O` it was -17.1%; in that of `Cc1c(Cl)cccc1OCC(=O)NC1(C#N)CCSC1` (stereo not drawn), -10.3%; in that of `Cn1nc(Br)c2c(=O)n(CCc3ccccc3)cnc21`, -8.29%.
For `N#CC1(NC(=O)COc2cc(Cl)cc(Cl)c2)CCSC1` (stereo not drawn), the cytotoxicity at 70.5 h is -14.6%.
`N#CC1(NC(=O)COc2cc(Cl)cc(Cl)c2)CCOCC1`: the cytotoxicity at 70.5 h was -5.72%.
Consider `CN1CCN(c2ccc(NCc3ccc(OC(F)(F)F)cc3)cn2)CC1`, for which the cytotoxicity at 70.5 h was -11.2%.
Take `CN(C)Cc1nc(C(C)(C)NC(=O)c2ccc3ccccc3c2)no1`: the cytotoxicity at 70.5 h was -6.87%.
For the molecule `N#Cc1cc(F)ccc1NCC1CCS(=O)(=O)CC1`, the cytotoxicity at 70.5 h was -1.39%.
Next, `O=C(CC1CCN(CCN2CCCCC2)CC1)N1CCOCC1`: -9.66%.
Next, `Cc1sc(NC(=O)CN2CCCC(c3ncc[nH]3)C2)c(C)c1C` (stereo not drawn): -14.9%; `O=C(CN1CCCC(c2ncc[nH]2)C1)NCC(F)(F)F` (stereo not drawn): 18.7%; `COc1ccc(CN(C(=O)C2CCCS2)c2ccncc2)cc1` (stereo not drawn): -8.12%.
As for `COc1ccc(CN(C(=O)C2CCOCC2)c2ccncc2)cc1`, the cytotoxicity at 70.5 h is -10.6%.
In the case of `CC(C)(C)CC1CCCN1Cc1nc(-c2ccco2)no1` (stereo not drawn) it was 18%; in that of `Cn1cnnc1CNC(=O)CCCOc1ccccc1Cl`, -14.3%; in that of `CN(CCc1nc(-c2cccc(Cl)c2)no1)CCn1cccn1`, -5.46%.
With `CN(C)Cc1nc(C(C)(C)NC(=O)c2nc3ccccc3s2)no1`, the cytotoxicity at 70.5 h was -7.47%.
Next, `CNS(=O)(=O)CCCNC(C)(C)c1nc(C)cs1`: -1.16%; `COc1ncccc1CNc1snc(Cl)c1C#N`: -103%; `O=C(CNc1cc(-n2cnnn2)ccc1F)Nc1cc(F)ccc1F`: -96.7%.
Next, `CNC(=O)Cn1cc(Nc2cccc(F)c2C#N)cn1`: -32.8%; `Cc1nc(-c2ccco2)ccc1C(=O)NCC(=O)N1CCCCC1`: -117%; `Cc1cccc(CSc2nnc(C)n2CC(N)=O)c1`: -91.2%.
In the case of `COC(=O)C1=NN2C(=NS(=O)(=O)c3ccccc32)N1`, the cytotoxicity at 70.5 h was -89.7%.
In the case of `COc1cc(CSc2nnc(C)n2CC(N)=O)ccc1SC` it was -118%; in that of `O=C(O)c1cc(S(=O)(=O)Nc2cccc3c2OCCO3)c(Cl)cc1F`, -124%; in that of `CCOCCc1nc(-c2cnn3c(C)cc(C)nc23)no1`, -107%.
Next, `CCS(=O)(=O)Cc1nc(-c2cnn3c(C)cc(C)nc23)no1`: -116%.
Next, `COCc1nc(C(=O)OCC2CCN(c3ccccc3)C2)cs1` (stereo not drawn): -88.7%; `NC(=O)C1CN(c2ccc(Br)cn2)CCO1` (stereo not drawn): -26.8%; `Cc1ccc(C(=O)N2CCC3(CCCC3)CC2)c(=O)[nH]1`: -99.3%.
As for `O=C(Cc1cccs1)NS(=O)(=O)c1cccc2cnccc12`, the cytotoxicity at 70.5 h is -116%.
Next, `CCS(=O)(=O)N1CCC(Nc2c(Cl)cccc2C#N)CC1`: -90.6%.
Regarding `CC(NC(=O)c1cccs1)(C(N)=O)c1cccc(C(F)(F)F)c1` (stereo not drawn), the cytotoxicity at 70.5 h is -101%.
In the case of `CCn1c(C)cc(C(=O)N2CCC(Nc3cccnn3)CC2)c1C` it was -108%.
For `CN(Cc1ccccc1)C(=O)CCS(=O)(=O)c1ccc2c(c1)OCCO2`, the cytotoxicity at 70.5 h is -62.4%.
`O=C(NCCC(=O)N1CCCC1)C(OC1CCCC1)c1ccccc1` (stereo not drawn): the cytotoxicity at 70.5 h was 34.3%.
In the case of `CCN(CCO)C(=O)Nc1ccc(OCCOC)nc1`, the cytotoxicity at 70.5 h was 2.78%.
Next, `CCCn1[nH]cc/c1=N\C(=O)CN1CCC[C@H]1CO`: 2.76%.
Next, `CC(NC(=O)c1cccc(CN2CCN(C)CC2)c1)c1ccccn1` (stereo not drawn): 0.178%.
Next, `CCOc1ncccc1CNC(=O)c1csc(Br)c1`: -8.48%.
As to `CN(C)c1ncccc1CNC(=O)c1csc(Br)c1`, the cytotoxicity at 70.5 h amounted to 13.3%.
Next, `O=C1CCN(C(=O)C2(c3ccc(Br)cc3)CC2)CCN1`: 1.42%.
In the case of `CC(NC(=O)NCc1cccc(CN2CCCC2)c1)c1nccs1` (stereo not drawn) it was -5.42%; in that of `CN(CC(=O)NC(c1ccc(F)cc1)C(F)(F)F)S(C)(=O)=O` (stereo not drawn), -0.794%.
Next, `CN(Cc1cc(Br)cn1C)C(=O)c1ccsc1`: -7.08%; `COc1ncccc1CNC(=O)c1c[nH]c(=O)c(Br)c1`: -4.91%; `CC1(C)CC1C(=O)NS(=O)(=O)Cc1cc(-c2ccccc2)no1` (stereo not drawn): -1.85%.
Regarding `Cc1noc(NCc2ccc(F)cc2F)n1`, the cytotoxicity at 70.5 h turned out to be 21.8%.
Regarding `CN(CCC#N)C(=O)CN1CCCC1c1cccs1` (stereo not drawn), the cytotoxicity at 70.5 h was -4.47%.
Next, `O=C(NCCN1CCOCC1)C(OC1CCCC1)c1ccccc1` (stereo not drawn): -3.19%.
In the case of `CN(Cc1ccco1)C(=O)CN1CCCC1c1cccs1` (stereo not drawn) it was 24.6%; in that of `Cc1nc(CNC2CCc3nc(C(C)C)nn3C2)oc1C` (stereo not drawn), -4.84%.
Take `CCc1nnc(C2Cc3ccccc3CN2Cc2cc(C)on2)o1` (stereo not drawn): the cytotoxicity at 70.5 h is -2.94%.
In the case of `O=C(Nc1cccs1)N(CCO)CCOCC(F)(F)F` it was 6.76%; in that of `CCN(CC)c1ccc(CNC(=O)c2cccc(C)n2)cn1`, 11.5%.
Turning to `CS(=O)(=O)N1CCC(C(=O)N2CCN(Cc3cccc(Cl)c3)CC2)CC1`, the cytotoxicity at 70.5 h was -8.76%.
As to `CC1(C)COCCN1C(=O)Cc1csc(Cc2ccccn2)n1`, the cytotoxicity at 70.5 h is -7.18%.
As for `CN1CCC(C(=O)N2CCN(Cc3cccc(Cl)c3)CC2)CC1=O` (stereo not drawn), the cytotoxicity at 70.5 h came out at 3.2%.
In the case of `CCN(CC)c1ccc(CNC(=O)c2ccccn2)cn1` it was 10.8%; in that of `COc1ccccc1CC1CCN(C(=O)CCN2CCOC2=O)CC1`, 2.48%.
`Cc1ccccc1C1(CNC(=O)N2CCC(CC(N)=O)CC2)CC1`: the cytotoxicity at 70.5 h is -4.35%.
In the case of `O=C(Cc1cccs1)NCc1ccnc(OC2CCOCC2)c1` it was -6.12%.
On to `Cc1c(NC(C)C(C)C)cccc1C(=O)NCc1cnn(C)c1` (stereo not drawn), for which the cytotoxicity at 70.5 h is -2.68%.
Consider `Cc1ccc(CNC(=O)C2CCN(C(=O)c3ccccc3)CC2)n1C`, for which the cytotoxicity at 70.5 h is -8.06%.
In the case of `NC(=O)N1CCCC1COC(=O)c1cc(F)ccc1F` (stereo not drawn), the cytotoxicity at 70.5 h is -1.3%.
In the case of `NC(=O)N1CCCC1COC(=O)c1ccc(F)cc1Br` (stereo not drawn) it was 12.5%.
Next, `CCOc1cc(F)ccc1NC(=O)N(C(C)CS(C)(=O)=O)C1CC1` (stereo not drawn): -4.36%; `CC(CS(C)(=O)=O)N(C(=O)Nc1ccc(F)cc1F)C1CC1` (stereo not drawn): -1.48%.
For `Cc1noc(-c2cccnc2N2CCOC(C)(c3cnn(C)c3)C2)n1` (stereo not drawn), the cytotoxicity at 70.5 h was -6.06%.
Turning to `CNC(=O)CC1CCN(C(=O)NCC2(c3ccccc3F)CC2)CC1`, the cytotoxicity at 70.5 h was -3.18%.
As for `COCCOCCCC(=O)N1CCC(Cc2ccccc2OC)CC1`, the cytotoxicity at 70.5 h was -10.9%.
Next, `Cc1nc(C)c(C(=O)N(C)Cc2cnn(C)c2)s1`: 1.01%; `Cc1ccccc1C1CCN(C(=O)CCNS(C)(=O)=O)C1` (stereo not drawn): 20.6%.
As to `COCCNC(=O)c1cc(OC)ccc1Br`, the cytotoxicity at 70.5 h amounted to 0.394%.
As for `Cc1nn(C)c(C)c1CC(=O)NCc1cccnc1N1CCOCC1`, the cytotoxicity at 70.5 h was -5.49%.
